# From US9499590B2, “Antibodies against and methods for producing vaccines for respiratory syncytial virus” (MEDIMMUNE, LLC, priority 2009, dated 2016)
# Where “and” joins values, the source holds several entries; their conditions need not be identical. Identical values can stand only once.
# B1: Numax ™: enhanced potency RSV-specific monoclonal antibody derived by in vitro affinity maturation of palivizumab (antibody, listed as Chimaera sp., V domains shown)
# VH: QVTLRESGPALVKPTQTLTLTCTFSGFSLSTAGMSVGWIRQPPGKALEWLADIWWDDKKHYNPSLKDRLTISKDTSKNQVVLKVTNMDPADTATYYCARDMIFNFYFDVWGQGTTVTVSS
# VL: DIQMTQSPSTLSASVGDRVTITCSASSRVGYMHWYQQKPGKAPKLLIYDTFFLDSGVPSRFSGSGSGTEFTLTISSLQPDDFATYYCFQGSGYPFTFGGGTKVEIK
# modifications: (1)..(120) Humanized VH domain antibody sequence; (1)..(106) Humanized VL domain antibody sequence
# Key:
# MEDI-524 Fab = MEDI-524 Fab (Homo sapiens, UniProt P01834+P01857); test: Isothermal titration calorimetry (ITC) of F peptides with MEDI-524 Fab; format: binding; conditions: 18° C., 25 mM His, pH 6.07
# Text: Isothermal Titration calorimetry assays (ITC) have been described (see, for example, Heerklotz H et al., Biophysical Journal, May 1999). Molecular interactions are defined by stoichiometry and a few thermodynamic parameters. All binding reactions are associated with the absorption or generation of heat. Therefore calorimetry is emerging as a premier tool for the characterisation of interactions of biological macromolecules. ITC is the only method that measures equilibrium constants, enthalpy and entropy in one single experiment. If the experiment is performed at different temperatures the important parameter, the heat capacity change, can be determined. ITC has become a standard method for investigating the binding of ligands to receptor molecules. Accordingly, ligands are mixed with receptors, and the subsequent heats of incorporation (or binding) are measured.
# To obtain binding constants for MEDI-524 Mab and MEDI-524 Fab fragments with F peptides constructed from F protein sequences, ITC was performed.
# For this set of experiments, […] (1.16 μM-148.4 KDa) of MEDI-524 Mab and 0.088 mg/mL (1.88 μM-46.3 KDa) of MEDI-524 Fab, both in 25 mM His, pH 6.07 were used. On the other hand, 250 μl of lmg/mL of the different peptides dissolved in H2O, were provided by ABC. The peptides were then diluted into the appropriate volume of buffer to give a final concentration of 50 μM. The ITC experiments were run at 18° C. with the macromolecule (Mab or Fab) in the cell, by doing ˜26 injections of 10 μL of peptides, spaced 360 sec with constant stirring. The data fitting was accomplished by subtracting the average value of the few last injections as the buffer and unspecific heat of dilution contributions. […] A note apart is the fact that the observed binding capacity (N) increases with the length of the peptide, indicating possibly an extra conformational factor in the binding event. The entropic contribution: For the peptides SEQ ID NOs.24 and 26, the entropic factor seems to be similar; the extra amino acids at the end of the N-terminal seem not to affect greatly the binding parameters. On the other hand, the elongation at the C-terminal seems to decrease slightly the binding enthalpy, the binding constant, as well as the entropic factor. The binding capacity seems to be increased in the cases where the 30-mer peptides were used (SEQ ID Nos. 25 and 26), when compare to the SEQ ID NO.24 peptide, possibly due to the longer extent of the whole peptides. The binding constant seems to be smaller (weaker) for both 30-mer peptides respect to the 26-mer.
# Numax™ = test: Biacore kinetic analysis of F peptides on captured Numax™; format: binding; conditions: F peptide 100 nM over captured Numax, HBS-EP
# Description: All studies were performed using Sensor Chip CM5 (Biacore AB, Uppsala, Sweden) which contains a carboxymethyl (CM) dextran matrix and a Biacore®3000 surface plasmon resonance (SPR) biosensor (Biacore AB, Uppsala, Sweden).
# Numax™ was captured via a high-affinity interaction between the Fc portion of Numax™ and a goat anti-human IgG(Fc) (KPL, Inc., Gaithersburg, Md.). Goat anti-human IgG(Fc) was covalently attached to the CM dextran matrix using amine coupling chemistry. Two anti-human IgG(Fc)-specific surfaces were created. Numax™ was diluted to 10.9 μg/mL with HBS-EP and flowed for 1 min. across one of the anti-human IgG (Fc) surfaces at a flow rate of 5 μL/min. The other anti-human IgG(Fc) surface was used as a reference surface. F peptide was prepared by dilution in HBS-EP (0.01 M Hepes pH 7.4, 0.15 M NaCl, 3 mM EDTA, 0.005% surfactant P20) to a final concentration of 100 nM. F peptide was injected for 1 min. in a serial-flow manner across the reference surface and the Numax™-specific surface. Dissociation of bound F peptide was monitored for 2 min in the presence of HBS-EP. After this dissociation period, Numax™ and F peptide were removed with a 30-sec injection of 10 mM glycine pH 1.7 (Biacore AB, Uppsala, Sweden). Because of the removal of Numax™, it was necessary to create a new Numax™-specific surface prior to the injection of each F peptide.
# RSV B9320 strain mutants = test: Microneutralization assay of RSV B9320 strain F protein mutants; format: cell-based, respiratory syncytial virus
# Text: (§1) Hep-2 cells were infected in 24 well plates with RSV (in some cases, the B9320 RSV strain) in the presence of an anti-RSV monoclonal antibody, such as, for instance, Synagis® (palivizumab) and/or Numax™ (motavizumab) or MEDI-524. The virus was passaged two to three more times in the continued presence of the monoclonal antibody. […] The resulting plaques were purified two times in the presence of the monoclonal antibody. The virus was expanded to produce virus stock in either the presence or absence of the monoclonal antibody. Analysis of susceptibility of the viral mutants to neutralization by Synagis® (palivizumab) and Numax™ (motavizumab) was performed by a microneutralization assay and/or IFA. Finally, the sequence of the mutant F protein was determined by standard methods. […] Antibody contact with residues 262, 268 and 272 appear important.
# [1] = tested on: RSV monoclonal antibody resistant mutants (MARMs); test: Microneutralization assay of RSV monoclonal antibody resistant mutants (MARMs); format: cell-based, respiratory syncytial virus
# Description: Neutralization assays have also been described (see, for example, Beller et al., 1989, J Virol 63: 2941-2950, which is incorporated herein by reference in its entirety). Briefly RSV is incubated in the presence of serial dilutions of the agent(s) to be tested (e.g., F peptide) for an appropriate period of time. The mixtures of virus-agent(s) are then transferred to cell monolayers and incubated for an appropriate period of time. Cells are subsequently examined microscopically for cytopathology. Microscopic observations can be confirmed by staining with a glutaraldehyde-crystal violet solution. Neutralization can be expressed as the reciprocal of the highest agent dilution which inhibited more then 95% of the viral cytopathic effect present in the control sample (RSV and cells alone)
# as §1
# RSV F protein = test: Biacore kinetic analysis, Numax reference standard; format: binding, respiratory syncytial virus
# Text: BIAcore analysis can measure the kinetic interactions of anti-RSV antibodies with RSV F peptides by surface plasmon resonance using a BIAcore 1000, 2000, or 3000 instrument (Biacore, Uppsala, Sweden). Purified recombinant, C-terminally truncated F protein was covalently coupled to a (1-ethyl-3-[3-dimethylaminopropyl]carbodiimide hydrochloride)/N-hydroxysuccinimide-activated CM5 sensor chip at a low protein density (see Johnsson et al. (1991) Anal. Biochem. 198, 268-277). The unreacted active ester groups were blocked with 1 M ethanolamine. For use as a reference, when the BIAcore 2000 or 3000 instrument was used, a blank surface, containing no antigen, was prepared under identical immobilization conditions. To minimize binding variations caused by different lots of F proteins, most of the antibodies were measured against the same lot of F protein. In several cases when different lots of F proteins were used, their binding to an anti-RSV antibody was used as a reference to make sure that these lots had similar binding characteristics to the lot that is used mainly. A serial 2-fold dilution series of purified antibodies, ranging from 0.2 to 100 nm in HBS/Tween 20 buffer (BIAcore), was injected over the F-protein and reference cell surfaces, which were connected in series. In each measurement, the residual antibody was removed from the sensor chip by a brief pulse of 100 mM HCl. The binding curves were globally fitted to a 1:1 Langmuir binding model using the BIAevaluation program. This algorithm calculates both kon and koff. The apparent equilibrium dissociation constant, Kd, was deduced as the ratio of the two rate constants, koff/kon.
# [2] = K272N, K272Q or K272I, or double N268L + K272I
# [3] = K272E, or double mutation N262Y + K272Q
# [4] = MARM 45, K272Q, selection Numax
# [5] = MARM 49-B12, K272N, selection Numax
# [6] = MARM 63-B6, N268L + K272I, selection Numax
# [7] = MARM 63-H2, K272I, selection Numax
# [8] = MARM 65-B10, N262Y + K272Q, selection Numax
# [9] = MARM 69-C8, K272E, selection Numax
# [10] = MARM #10, K272E + N276Y, selection A4b4
# [11] = MARM #13, N262K + K272Q, selection Synagis then A4b4
# [12] = MARM B1, K272N, selection Synagis
# [13] = MARM B2, K272M, selection Synagis
# [14] = MARM B7, K272T, selection Synagis
# [15] = MARM B9, K272Q, selection Synagis
# [16] = MARM NuMARM3, K272E, selection Numax
# [17] = all other mutations indicated at position 272
# Chain of MEDI-524 Fab (P01857 with tags, fused parts or gaps limits assumed, other chains not shown): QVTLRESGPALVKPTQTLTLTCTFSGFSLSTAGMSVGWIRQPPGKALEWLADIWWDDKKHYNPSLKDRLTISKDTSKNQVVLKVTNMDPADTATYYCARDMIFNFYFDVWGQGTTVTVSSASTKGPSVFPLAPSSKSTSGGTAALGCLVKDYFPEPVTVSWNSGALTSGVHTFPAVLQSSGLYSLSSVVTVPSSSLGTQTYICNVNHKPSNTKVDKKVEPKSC
# Chain of Numax™ (as listed by the source, one chain of several): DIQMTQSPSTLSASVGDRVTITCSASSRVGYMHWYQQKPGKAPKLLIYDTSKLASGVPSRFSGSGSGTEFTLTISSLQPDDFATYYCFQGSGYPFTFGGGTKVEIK
Molecule,Ka (association constant) (MEDI-524 Fab),ΔHbinding (MEDI-524 Fab),ΔSbinding (MEDI-524 Fab),Kd (Numax™),ka (Numax™),kd (Numax™),Neutralization of RSV mutant (RSV B9320 strain mutants; [2]),Neutralization of RSV mutant (RSV B9320 strain mutants; double mutation K272Q + N262K),"Neutralization of RSV mutant [1, 3]","Neutraliz by antibody? [1, 4]","Neutraliz by antibody? [1, 5]","Neutraliz by antibody? [1, 6]","Neutraliz by antibody? [1, 7]","Neutraliz by antibody? [1, 8]","Neutraliz by antibody? [1, 9]","Neutraliz by antibody? ([1]; MARM #6, K272E, selection A4b4)","Neutraliz by antibody? [1, 10]","Neutraliz by antibody? [1, 11]","Neutraliz by antibody? [1, 12]","Neutraliz by antibody? [1, 13]",also measured
NSELLSLIHDMPITNDQKKLMSNNVQIVRQ [SEQ ID NO: 25],6.5e+06 M⁻¹,-10.4 kcal/mol,−4.7,7.23 nM and 5.44 nM,2.50E+05 and 3.62E+05,1.81E−03 and 1.97E−03,–,–,–,–,–,–,–,–,–,–,–,–,–,–,–
NSELLSLINDMPITNDQKKLMSNN(X-orn)C [SEQ ID NO: 24],1.3e+07 M⁻¹,-12.8 kcal/mol,−11.4,2.29 nM,1.06E+05,2.42E−04,–,–,–,–,–,–,–,–,–,–,–,–,–,–,–
NSELLSLINDMPITNDQKKLMSNNC [SEQ ID NO: 27],–,–,–,20.4 nM,2.70E+05,5.50E−03,–,–,–,–,–,–,–,–,–,–,–,–,–,–,–
STYMLTNSELLSLIHDMPITNDQKKLMSNN [SEQ ID NO: 26],7.1e+06 M⁻¹,-11.4 kcal/mol,−8.1,22.7 nM,2.43E+05,5.52E−03,–,–,–,–,–,–,–,–,–,–,–,–,–,–,–
Synagis ®: humanized RSV monoclonal antibody directed against the F glycoprotein of RSV [reference compound],–,–,–,–,–,–,lost its ability to neutralize RSV,lost their ability to neutralize,longer neutralized RSV,No,No,No,No,No,No,No,No,No,No,No,"Neutraliz by antibody? [1, 14]: No; Neutraliz by antibody? [1, 15]: No; Neutraliz by antibody? [1, 16]: No; Neutralization of RSV mutant [1, 17]: eliminate the ability"
B1,–,–,–,–,–,–,retain its ability to neutralize RSV at higher concentration,lost their ability to neutralize,longer neutralized RSV,Yes at higher,Yes at higher,Yes at higher,Yes at higher,No,No,No,No,No,Yes,Yes,"Kd (RSV F protein): 0.004 nM; ka (RSV F protein): 4.70E+05; kd (RSV F protein): 1.88E−06; Neutralization of RSV mutant (RSV B9320 strain mutants; single mutant K272Q): did not knock out; Neutraliz by antibody? [1, 14]: Yes; Neutraliz by antibody? [1, 15]: Yes; Neutraliz by antibody? [1, 16]: No; Neutralization of RSV mutant [1, 17]: retain its ability to neutralize"
